Laboratory results as given in publication PMC6344531, “Discovery and evaluation of inhibitor of LARP6 as specific antifibrotic compound” (Scientific Reports, 2019).

Molecular target: T1, LARP6 (Homo sapiens, UniProt Q9BRS8)
T1 construct: LARP6*, amino-acids 72–303, His-tag
T1 sequence (Q9BRS8 72-303): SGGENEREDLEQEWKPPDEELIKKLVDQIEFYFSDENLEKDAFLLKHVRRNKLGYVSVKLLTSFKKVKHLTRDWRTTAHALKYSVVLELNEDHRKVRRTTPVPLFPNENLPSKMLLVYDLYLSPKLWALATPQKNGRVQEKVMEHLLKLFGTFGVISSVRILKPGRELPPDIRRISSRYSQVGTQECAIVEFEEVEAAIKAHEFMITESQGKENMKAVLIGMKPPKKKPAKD
Experiment: FP dissociation of LARP6* from fluorescein-labelled […]'SL RNA; intrinsic tryptophan fluorescence quenching of LARP6*; gel mobility shift with extracts of treated cells
Type: binding

SMILES: Cc1cccn2c(=O)c3cc(C(=O)Nc4cccnc4)n(C)c3nc12 [C9]
- IC50: ~15 µM
